Test results reported in patent US20250205199A1, “5-METHOXY-N,N-[…][…] THE TREATMENT OF SOCIAL/EMOTIONAL […] DETACHMENT” (GH RESEARCH IRELAND LIMITED, priority 2022, published 2025).

Columns and labels:
[1] = Pharmacokinetics of 5-MeO-DMT and bufotenine after inhalation; format: in vivo, human; conditions: for Plasma concentration as % of Cmax: whole dose range tested (6 mg, 12 mg, 18 mg)
Protocol: This applies over the whole dose range tested (6 mg, 12 mg, 18 mg). […] Uptitration as disclosed herein will not lead to accumulation and thus not to higher plasma concentrations, for instance, 10 minutes, 2 hours, or 3 hours after administration.
Blood samples were obtained at 1; 2; 4; 7; 10; 15; 20; 30; 45 min and 1; 1.5; 2; 3; 4 hours after administration.
PK parameters were generated by algebraic analysis of the concentration versus time plots for each individual. The analysis was carried out using the software Phoenix WinNonlin 6.3.

[2] = tested on: patients with treatment-resistant major depressive disorder (TRD); experiment: Phase 1/2 clinical trial of inhaled 5-MeO-DMT in patients with TRD
Protocol: Patients were assigned to different groups. In the context of the present invention, the group who received a single, 12 mg dose and the group who underwent an intra-day individualized dosing regimen (IDR) that allowed for multiple, escalating doses (6 mg, 12 mg and 18 mg) within a single day, driven by the intensity of the patient-reported psychedelic experience are of interest.
The data gathered include the assessment of the treated patients against several scales including the Montgomery-Åsberg Depression Rating Scale (MADRS) and the Brief Psychiatric Rating Scale (BPRS).
This trial was designed in two parts. Part A was an open-label, single-arm, single-dose Phase 1 trial with two dose levels (12 mg (n=4) and 18 mg (n=4)). […] The primary endpoint of Part B was to assess the effects on the severity of depression, as assessed by the proportion of patients in remission on day seven after dosing, defined as a MADRS total score of less than or equal to 10.

[3] = 12 mg n=4, 2 hours after dose, baseline 16

## COc1ccc2[nH]cc(CCN(C)C)c2c1 [5-MeO-DMT]
[1]; 10 minutes after inhalation
  Plasma concentration as % of Cmax: ≤ 10%
[1]; 2 hours after inhalation
  Plasma concentration as % of Cmax: ≤ 1%
[1]; 3 hours after inhalation, whole dose range tested
  Detectability in the plasma: no longer detectable
[1]; dosing schemes relying on uptitration
  Pharmacokinetic measurements under uptitration dosing schemes versus single doses: Substantially similar results
[2]; 12 mg n=4, 2 hours after dose, baseline 8
  MADRS Suicidal Thoughts improvement: 5 points
[2]; 12 mg n=4, 2 hours after dose, baseline 13
  MADRS Inner Tension improvement: 11
[2]; [3]
  MADRS Concentration Difficulties improvement: 9
  MADRS Inability to Feel improvement: 7 points
  MADRS Lassitude improvement: 6
  MADRS Pessimistic Thoughts improvement: 8
[2]; 12 mg n=4, 3 hours after dose, baseline 11
  BPRS Blunted Affect improvement: 3 points
[2]; 12 mg n=4, 3 hours after dose, baseline 13
  BPRS Emotional Withdrawal improvement: 2 points
[2]; 12 mg n=4, 3 hours after dose, baseline 14
  BPRS Tension improvement: 5
[2]; 12 mg n=4, 3 hours after dose, baseline 18
  BPRS Guilt Feelings improvement: 9
[2]; 12 mg n=4, 3 hours after dose, baseline 25
  BPRS Anxiety improvement: 14
[2]; 12 mg n=4, day 1, baseline 13
  MADRS Inner Tension improvement: 10
[2]; 12 mg n=4, day 1, baseline 14
  BPRS Tension improvement: 8
[2]; 12 mg n=4, day 1, baseline 16
  MADRS Concentration Difficulties improvement: 14
  MADRS Lassitude improvement: 16
  MADRS Pessimistic Thoughts improvement: 9
[2]; 12 mg n=4, day 1, baseline 18
  BPRS Guilt Feelings improvement: 13
[2]; 12 mg n=4, day 1, baseline 25
  BPRS Anxiety improvement: 19
[2]; 12 mg n=4, day 7, baseline 12
  MADRS Reduced Sleep percentage improvement: 50.00%
[2]; 12 mg n=4, day 7, baseline 13
  MADRS Inner Tension improvement: 8
[2]; 12 mg n=4, day 7, baseline 14
  BPRS Tension improvement: 8
[2]; 12 mg n=4, day 7, baseline 16
  MADRS Concentration Difficulties improvement: 13
  MADRS Lassitude improvement: 13
  MADRS Pessimistic Thoughts improvement: 8
[2]; 12 mg n=4, day 7, baseline 18
  BPRS Guilt Feelings improvement: 13
[2]; 12 mg n=4, day 7, baseline 25
  BPRS Anxiety improvement: 19
[2]; IDR n=8, 2 hours after last dose, baseline 11
  MADRS Suicidal Thoughts improvement: 8 points
[2]; IDR n=8, 2 hours after last dose, baseline 26
  MADRS Inner Tension improvement: 15
[2]; IDR n=8, 2 hours after last dose, baseline 27
  MADRS Lassitude improvement: 17
[2]; IDR n=8, 2 hours after last dose, baseline 28
  MADRS Pessimistic Thoughts improvement: 21
[2]; IDR n=8, 2 hours after last dose, baseline 30
  MADRS Concentration Difficulties improvement: 19
[2]; IDR n=8, 2 hours after last dose, baseline 36
  MADRS Inability to Feel improvement: 24 points
[2]; IDR n=8, 3 hours after last dose, baseline 13
  BPRS Emotional Withdrawal improvement: 5 points
[2]; IDR n=8, 3 hours after last dose, baseline 15
  BPRS Blunted Affect improvement: 4 points
[2]; IDR n=8, 3 hours after last dose, baseline 16
  BPRS Tension improvement: 5
[2]; IDR n=8, 3 hours after last dose, baseline 34
  BPRS Guilt Feelings improvement: 20
[2]; IDR n=8, 3 hours after last dose, baseline 37
  BPRS Anxiety improvement: 18
[2]; IDR n=8, day 1, baseline 16
  BPRS Tension improvement: 5
[2]; IDR n=8, day 1, baseline 25
  MADRS Reduced Sleep percentage improvement: 52.00%
[2]; IDR n=8, day 1, baseline 26
  MADRS Inner Tension improvement: 20
[2]; IDR n=8, day 1, baseline 27
  MADRS Lassitude improvement: 22
[2]; IDR n=8, day 1, baseline 28
  MADRS Pessimistic Thoughts improvement: 24
[2]; IDR n=8, day 1, baseline 30
  MADRS Concentration Difficulties improvement: 29
[2]; IDR n=8, day 1, baseline 34
  BPRS Guilt Feelings improvement: 23
[2]; IDR n=8, day 1, baseline 37
  BPRS Anxiety improvement: 21
[2]; IDR n=8, day 7, baseline 16
  BPRS Tension improvement: 6
[2]; IDR n=8, day 7, baseline 25
  MADRS Reduced Sleep percentage improvement: 64.00%
[2]; IDR n=8, day 7, baseline 26
  MADRS Inner Tension improvement: 14
[2]; IDR n=8, day 7, baseline 27
  MADRS Lassitude improvement: 24
[2]; IDR n=8, day 7, baseline 28
  MADRS Pessimistic Thoughts improvement: 25
[2]; IDR n=8, day 7, baseline 30
  MADRS Concentration Difficulties improvement: 21
[2]; IDR n=8, day 7, baseline 34
  BPRS Guilt Feelings improvement: 24
[2]; IDR n=8, day 7, baseline 37
  BPRS Anxiety improvement: 20
[2]; Part A
  SAEs: No SAEs
[2]; Part A, 12 mg n=4, day seven
  Patients with MADRS remission (total score <=10): 50%
[2]; Part A, 12 mg, day seven
  Mean MADRS change from baseline: −21.0
  Mean MADRS change from baseline, percent: −65%
[2]; Part A, 18 mg n=4, day seven
  Patients with MADRS remission (total score <=10): 25%
[2]; Part A, 18 mg, day seven
  Mean MADRS change from baseline, percent: −41%
